ChEMBL document CHEMBL3813593, “Design, synthesis and biological evaluation of 4-aminopyrimidine-5-cabaldehyde oximes as dual inhibitors of c-Met and VEGFR-2” (Bioorg Med Chem, 2016)

Assays:
[1] = target: Hepatocyte growth factor receptor (Homo sapiens, UniProt P08581); experiment: Inhibition of recombinant c-Met (unknown origin) using poly (Glu, Tyr) 4:1 as substrate incubated for 60 mins by ELISA
[2] = target: T1, Vascular endothelial growth factor receptor 2 (Homo sapiens, UniProt P35968); experiment: Inhibition of recombinant VEGFR2 (unknown origin) using poly (Glu, Tyr) 4:1 as substrate incubated for 60 mins by ELISA
cells = settings: Mus musculus, BaF3, 72 h
[3] = Lipophilicity, log P of compound by shake flask method; type: physicochemical; settings: octanol/water
HUVEC = experiment: Antiproliferative activity against recombinant human VEGF-stimulated HUVEC after 120 hrs by CCK8 assay; type: functional, cell-based
[4] = target: T1, Vascular endothelial growth factor receptor 2; experiment: Inhibition of VEGFR2 (unknown origin)

T1 sequence (P35968 whole entry): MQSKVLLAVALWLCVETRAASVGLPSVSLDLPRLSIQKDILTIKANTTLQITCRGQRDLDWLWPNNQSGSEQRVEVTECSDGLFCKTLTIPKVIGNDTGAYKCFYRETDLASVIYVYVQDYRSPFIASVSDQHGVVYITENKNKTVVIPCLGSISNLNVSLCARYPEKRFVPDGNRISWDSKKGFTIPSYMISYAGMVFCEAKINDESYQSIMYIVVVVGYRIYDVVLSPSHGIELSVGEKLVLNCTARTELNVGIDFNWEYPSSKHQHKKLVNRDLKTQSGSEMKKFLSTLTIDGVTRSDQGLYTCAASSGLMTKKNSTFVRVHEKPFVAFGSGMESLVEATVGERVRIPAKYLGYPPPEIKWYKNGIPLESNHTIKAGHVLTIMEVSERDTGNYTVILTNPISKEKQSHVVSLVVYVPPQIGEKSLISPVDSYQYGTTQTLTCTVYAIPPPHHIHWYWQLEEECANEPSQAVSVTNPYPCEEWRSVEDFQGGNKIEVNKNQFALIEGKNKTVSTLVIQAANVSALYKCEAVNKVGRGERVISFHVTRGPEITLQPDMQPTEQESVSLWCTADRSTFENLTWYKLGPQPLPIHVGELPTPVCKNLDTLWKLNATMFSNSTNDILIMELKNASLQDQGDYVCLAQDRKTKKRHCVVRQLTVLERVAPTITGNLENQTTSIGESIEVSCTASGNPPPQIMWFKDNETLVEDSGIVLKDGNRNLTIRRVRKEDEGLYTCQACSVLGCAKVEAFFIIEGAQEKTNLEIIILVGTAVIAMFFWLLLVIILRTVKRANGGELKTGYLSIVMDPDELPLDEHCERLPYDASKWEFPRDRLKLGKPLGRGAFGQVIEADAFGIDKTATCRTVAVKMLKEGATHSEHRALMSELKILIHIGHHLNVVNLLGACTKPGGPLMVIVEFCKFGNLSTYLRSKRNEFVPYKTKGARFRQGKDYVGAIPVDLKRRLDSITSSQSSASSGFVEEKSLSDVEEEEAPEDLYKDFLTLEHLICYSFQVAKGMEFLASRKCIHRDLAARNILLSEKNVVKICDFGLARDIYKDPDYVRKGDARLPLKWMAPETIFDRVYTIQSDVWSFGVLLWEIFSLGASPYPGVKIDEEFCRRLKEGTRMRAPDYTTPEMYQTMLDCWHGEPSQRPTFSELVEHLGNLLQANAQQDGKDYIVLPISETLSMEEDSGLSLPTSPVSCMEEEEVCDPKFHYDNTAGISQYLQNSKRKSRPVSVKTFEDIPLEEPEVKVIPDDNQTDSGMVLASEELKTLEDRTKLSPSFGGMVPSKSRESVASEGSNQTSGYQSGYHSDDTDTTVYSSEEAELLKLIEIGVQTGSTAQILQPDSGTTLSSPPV
Chain of Hepatocyte growth factor receptor (P08581 whole entry): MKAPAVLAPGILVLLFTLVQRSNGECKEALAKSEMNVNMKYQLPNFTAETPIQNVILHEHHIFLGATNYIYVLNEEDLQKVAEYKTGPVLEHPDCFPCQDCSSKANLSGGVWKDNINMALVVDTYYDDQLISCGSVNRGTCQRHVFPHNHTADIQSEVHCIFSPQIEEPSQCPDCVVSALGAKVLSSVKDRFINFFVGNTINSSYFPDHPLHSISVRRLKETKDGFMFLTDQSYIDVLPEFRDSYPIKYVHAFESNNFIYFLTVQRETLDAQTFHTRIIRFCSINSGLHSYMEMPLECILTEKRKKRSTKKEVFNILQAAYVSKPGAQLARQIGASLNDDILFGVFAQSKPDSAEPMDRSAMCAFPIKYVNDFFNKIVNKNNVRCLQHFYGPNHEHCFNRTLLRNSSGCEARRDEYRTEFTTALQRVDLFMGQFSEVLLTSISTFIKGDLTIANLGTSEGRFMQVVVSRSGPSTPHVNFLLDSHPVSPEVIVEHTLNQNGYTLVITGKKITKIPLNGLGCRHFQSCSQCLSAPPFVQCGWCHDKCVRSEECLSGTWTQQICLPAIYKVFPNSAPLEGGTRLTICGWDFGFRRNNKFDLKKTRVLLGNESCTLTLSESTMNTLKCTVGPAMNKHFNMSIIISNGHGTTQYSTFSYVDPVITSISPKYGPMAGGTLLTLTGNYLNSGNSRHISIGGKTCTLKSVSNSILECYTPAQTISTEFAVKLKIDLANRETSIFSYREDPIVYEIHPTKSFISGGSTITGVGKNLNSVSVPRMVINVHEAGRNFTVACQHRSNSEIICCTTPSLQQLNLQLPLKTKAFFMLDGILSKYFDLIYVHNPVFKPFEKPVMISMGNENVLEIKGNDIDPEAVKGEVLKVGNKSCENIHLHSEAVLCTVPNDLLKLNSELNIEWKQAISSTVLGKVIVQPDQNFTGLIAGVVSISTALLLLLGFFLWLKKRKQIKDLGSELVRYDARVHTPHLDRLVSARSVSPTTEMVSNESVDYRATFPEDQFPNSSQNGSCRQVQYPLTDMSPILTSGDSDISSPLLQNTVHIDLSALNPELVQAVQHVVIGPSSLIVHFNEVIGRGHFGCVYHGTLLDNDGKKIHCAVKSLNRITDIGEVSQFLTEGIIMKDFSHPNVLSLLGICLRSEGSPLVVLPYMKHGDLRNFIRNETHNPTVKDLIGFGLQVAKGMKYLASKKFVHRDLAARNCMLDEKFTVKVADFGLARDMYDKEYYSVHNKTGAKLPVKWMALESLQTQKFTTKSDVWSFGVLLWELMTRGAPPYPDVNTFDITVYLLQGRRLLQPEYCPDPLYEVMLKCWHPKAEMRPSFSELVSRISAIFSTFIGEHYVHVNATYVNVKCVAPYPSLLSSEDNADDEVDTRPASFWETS

SMILES	IC50 (cells)	logP ([3]; read-out: logP)	IC50 (HUVEC)	also measured
Nc1ncnc(Oc2ccc(NC(=O)C3(C(=O)Nc4ccc(F)cc4)CC3)cc2F)c1/C=N/OCCCO	110 nM	2.67	210 nM	–
N/N=C/c1c(N)ncnc1Oc1ccc(NC(=O)C2(C(=O)Nc3ccc(F)cc3)CC2)cc1F	765 nM	2.25	–	–
Nc1ncnc(Oc2ccc(NC(=O)C3(C(=O)Nc4ccc(F)cc4)CC3)cc2F)c1/C=N/OC1CCCC1	745 nM	4.27	–	–
Nc1ncnc(Oc2ccc(NC(=O)C3(C(=O)Nc4ccc(F)cc4)CC3)cc2F)c1/C=N/OCC(=O)N1CCOCC1	397 nM	2.1	–	–
CC(O)CO/N=C/c1c(N)ncnc1Oc1ccc(NC(=O)C2(C(=O)Nc3ccc(F)cc3)CC2)cc1F (centres undefined)	258 nM	2.75	–	–
CO/N=C/c1c(N)ncnc1Oc1ccc(NC(=O)C2(C(=O)Nc3ccc(F)cc3)CC2)cc1F	166 nM	3.04	320 nM	–
CC(C)(C)OC(=O)N/N=C/c1c(N)ncnc1Oc1ccc(NC(=O)C2(C(=O)Nc3ccc(F)cc3)CC2)cc1F	321 nM	3.7	–	–
Nc1ncnc(Oc2ccc(NC(=O)C3(C(=O)Nc4ccc(F)cc4)CC3)cc2F)c1/C=N/OCCCN1CCOCC1	186 nM	2.98	427 nM	–
CCO/N=C/c1c(N)ncnc1Oc1ccc(NC(=O)C2(C(=O)Nc3ccc(F)cc3)CC2)cc1F	215 nM	3.41	–	–
Nc1ncnc(Oc2ccc(NC(=O)C3(C(=O)Nc4ccc(F)cc4)CC3)cc2F)c1/C=N/OCC(O)CN1CCOCC1 (centres undefined)	158 nM	2.02	720 nM	–
Nc1ncnc(Oc2ccc(NC(=O)C3(C(=O)Nc4ccc(F)cc4)CC3)cc2F)c1/C=N/OCCCN1CCCC1	119 nM	3.82	219 nM	–
C#CCO/N=C/c1c(N)ncnc1Oc1ccc(NC(=O)C2(C(=O)Nc3ccc(F)cc3)CC2)cc1F	521 nM	3.34	–	–
CCOC(=O)CO/N=C/c1c(N)ncnc1Oc1ccc(NC(=O)C2(C(=O)Nc3ccc(F)cc3)CC2)cc1F	> 1000 nM	3.15	–	–
Nc1ncnc(Oc2ccc(NC(=O)C3(C(=O)Nc4ccc(F)cc4)CC3)cc2F)c1/C=N/OCCN1CCCC1	162 nM	3.5	168 nM	–
CO/N=C/c1c(N)ncnc1Oc1ccc2[nH]ccc2c1	–	–	–	IC50 [4]: 146 nM
COc1cc2nccc(Oc3ccc(NC(=O)C4(C(=O)Nc5ccc(F)cc5)CC4)cc3)c2cc1OC [CABOZANTINIB]	–	–	–	logP [3]: 4.28
COc1cc2c(Oc3ccc(NC(=O)C4(C(=O)Nc5ccc(F)cc5)CC4)cc3F)ccnc2cc1OCCCN1CCOCC1 [FORETINIB]	–	4.28	–	–

Continued, in another order:

IC50 (cells)	logP ([3]; read-out: logP)	SMILES	IC50 (HUVEC)	also measured
> 1000 nM	3.52	CNc1ncnc(Oc2ccc(NC(=O)C3(C(=O)Nc4ccc(F)cc4)CC3)cc2F)c1/C=N/OC	–	IC50 [1]: > 10000 nM; IC50 [2]: > 10000 nM
566 nM	4.45	Nc1ncnc(Oc2ccc(NC(=O)C3(C(=O)Nc4ccc(F)cc4)CC3)cc2F)c1/C=N/OCc1ccccc1	–	–
200 nM	2.37	Nc1ncnc(Oc2ccc(NC(=O)C3(C(=O)Nc4ccc(F)cc4)CC3)cc2F)c1/C=N/OCCO	–	–
194 nM	2.62	Nc1ncnc(Oc2ccc(NC(=O)C3(C(=O)Nc4ccc(F)cc4)CC3)cc2F)c1/C=N/O	260 nM	–
626 nM	4.2	CCCCO/N=C/c1c(N)ncnc1Oc1ccc(NC(=O)C2(C(=O)Nc3ccc(F)cc3)CC2)cc1F	–	–
243 nM	3.18	COCCCO/N=C/c1c(N)ncnc1Oc1ccc(NC(=O)C2(C(=O)Nc3ccc(F)cc3)CC2)cc1F	–	–
879 nM	4.69	Nc1ncnc(Oc2ccc(NC(=O)C3(C(=O)Nc4ccc(F)cc4)CC3)cc2F)c1/C=N/OC1CCCCC1	–	–
89 nM	3.23	CN(C)CCCO/N=C/c1c(N)ncnc1Oc1ccc(NC(=O)C2(C(=O)Nc3ccc(F)cc3)CC2)cc1F	110 nM	–
619 nM	3.65	C=CCO/N=C/c1c(N)ncnc1Oc1ccc(NC(=O)C2(C(=O)Nc3ccc(F)cc3)CC2)cc1F	–	–
